Experimental data as given in US6716851B2, “Substituted 2-aryl-4-arylaminopyrimidines and analogs as activators or caspases and inducers of apoptosis and the use thereof” (Cytovia, Inc., priority 2000, dated 2004).
One block for each compound: values may come before it.

Experiments:
[1] = system: ZR-75-1 cells; assay: Caspase cascade activation (N-(Ac-DEVD)-N'-ethoxycarbonyl-R110 fluorogenic substrate) in ZR-75-1 cells; assay type: cell-based, Human; details: ZR-75-1, 48 h incubation; for EC50: Homo sapiens, caspase activation potency; for ZR Ratio 48 hr: caspase activity: ratio of net RFU of test compound to control
Procedure: (§1) Human breast cancer cell lines T-47D and ZR-75-1 were grown according to media component mixtures designated by American Type Culture Collection +10% FCS (Invitrogen Corporation, Life Technologies division), in a 5% CO2-95% humidity incubator at 37° C. T-47D and ZR-75-1 cells were maintained at a cell density between 50 and 80% confluency at a cell density of 0.1 to 0.6×10^6 cells/ml. Cells were harvested at 600× g and resuspended at 0.65×10^6 cells/ml into appropriate media +10% FCS. An aliquot of […] of cells was added to a well of a […] microtiter plate containing 2.5 μl of a 10% DMSO in RPMI-1640 media solution containing 0.16 to 100 μM of 4-(3-methoxyanilino)-2-(2-pyridinyl)-6-(trifluoromethyl)pyrimidine or other test compound (0.016 to 10 μM final). An aliquot of 22.5 μl of cells was added to a well of a 384-well microtiter plate containing 2.5 μl of a 10% DMSO in RPMI-1640 media solution without test compound as the control sample. The samples were mixed by agitation and then incubated at 37° C. for 48 h in a 5% CO2-95% humidity incubator. After incubation, the samples were removed from the incubator and 25 μl of a solution containing 14 μM of N-(Ac-DEVD)-N′-ethoxycarbonyl-R110 fluorogenic substrate (Cytovia, Inc.; WO99/18856), 20% sucrose (Sigma), 20 mM DTT (Sigma), 200 mM NaCl (Sigma), 40 mM Na PIPES buffer pH 7.2 (Sigma), and 500 μg/ml lysolecithin (Calbiochem) was added. The samples were mixed by agitation and incubated at room temperature. Using a fluorescent plate reader (Model SpectraMax Gemini, Molecular Devices), an initial reading (T=0) was made approximately 1-2 min after addition of the substrate solution, employing excitation at 485 nm and emission at 530 nm, to determine the background fluorescence of the control sample. After the 3 h incubation, the samples were read for fluorescence as above (T=3 h).
(§2) The Relative Fluorescence Unit values (RFU) were used to calculate the sample readings as follows:
(§3) RFU(T=3h)−Control RFU(T=0)=Net RFU(T=3h)
(§4) The activity of caspase cascade activation was determined by the ratio of the net RFU value for 4-(3-methoxyanilino)-2-(2-pyridinyl)-6-(trifluoromethyl)pyrimidine or other test compound to that of control samples. The EC50 (nM) was determined by a sigmoidal dose-response calculation (Prism 2.0, GraphPad Software Inc.).

[2] = system: T-47D cells; assay: Caspase cascade activation (N-(Ac-DEVD)-N'-ethoxycarbonyl-R110 fluorogenic substrate) in T-47D cells; assay type: cell-based, Human; details: 48 h incubation; for EC50: Homo sapiens, T47D, caspase activation potency, read-out: T47 EC50; for T47 Ratio 48 hr: caspase activity: ratio of net RFU of test compound to control
Procedure: as §1, §2, §3, §4

EC50 [1]: > 5000 nM | EC50 [2]: > 5000 nM
SMILES: Fc1c(F)c(F)c(Oc2cccc(Nc3cc(C(F)(F)F)nc(-c4cccnc4)n3)c2)c(F)c1F [Example 62, 4-[3-(2,3,4,5,6-Pentafluorophenoxy)anilino]-2-(3-pyridinyl)-6-(trifluoromethyl)pyrimidine]
ZR Ratio 48 hr [1]: 1.3 | T47 Ratio 48 hr [2]: 1.6

EC50 [1]: 43 nM | EC50 [2]: 18 nM
SMILES: COc1ccc(OC)c(Nc2cc(C(F)(F)F)nc(-c3ccccn3)n2)c1 [Example 63, 4-(2,5-Dimethoxyanilino)-2-(2-pyridinyl)-6-(trifluoromethyl)pyrimidine]
ZR Ratio 48 hr [1]: 9.6 | T47 Ratio 48 hr [2]: 8.9

EC50 [1]: > 5000 nM | EC50 [2]: > 5000 nM
SMILES: FC(F)(F)c1cc(Nc2cccc(Oc3ccccc3)c2)nc(-c2cccnc2)n1 [Example 67, 4-(3-Phenoxyanilino)-2-(3-pyridinyl)-6-(trifluoromethyl)pyrimidine]
ZR Ratio 48 hr [1]: 1.2 | T47 Ratio 48 hr [2]: 1.5

EC50 [1]: 130 nM | EC50 [2]: 247 nM
SMILES: Cc1ccc(C)c(Nc2cc(C(F)(F)F)nc(-c3cccnc3)n2)c1 [Example 68, 4-(2,5-Dimethylanilino)-2-(3-pyridinyl)-6-(trifluoromethyl)pyrimidine]
ZR Ratio 48 hr [1]: 17.9 | T47 Ratio 48 hr [2]: 20.9

EC50 [1]: 3280 nM | EC50 [2]: 2290 nM
SMILES: COc1ccc(OC)c(Nc2cc(C(F)(F)F)nc(-c3ccccc3)n2)c1 [Example 75, 4-(2,5-Dimethoxyanilino)-2-phenyl-6-(trifluoromethyl)pyrimidine]
ZR Ratio 48 hr [1]: 7.8 | T47 Ratio 48 hr [2]: 16.3

EC50 [1]: 5500 nM | EC50 [2]: 5050 nM
SMILES: COc1ccc(Cl)c(Nc2cc(C(F)(F)F)nc(-c3ccccc3)n2)c1 [Example 81, 4-(2-Chloro-5-methoxyanilino)-2-phenyl-6-(trifluoromethyl)pyrimidine]
ZR Ratio 48 hr [1]: 5.0 | T47 Ratio 48 hr [2]: 12.7

EC50 [1]: 1220 nM | EC50 [2]: 2320 nM
SMILES: Cc1ccc(F)cc1Nc1cc(C(F)(F)F)nc(-c2cccnc2)n1 [Example 88, 4-(5-Fluoro-2-methylanilino)-2-(3-pyridinyl)-6-(trifluoromethyl)pyrimidine]
ZR Ratio 48 hr [1]: 8.0 | T47 Ratio 48 hr [2]: 9.8

EC50 [1]: 788 nM | EC50 [2]: 1440 nM
SMILES: Cc1ccc(N)cc1Nc1cc(C(F)(F)F)nc(-c2cccnc2)n1.Cl [Example 91, 4-(5-Amino-2-methylanilino)-2-(3-pyridinyl)-6-(trifluoromethyl)pyrimidine hydrochloride]
ZR Ratio 48 hr [1]: 8.8 | T47 Ratio 48 hr [2]: 11.7

EC50 [1]: 285 nM | EC50 [2]: 363 nM
SMILES: CCOc1cccc(Nc2cc(C(F)(F)F)nc(-c3ccccn3)n2)c1 [Example 92, 4-(3-Ethoxyanilino)-2-(2-pyridinyl)-6-(trifluoromethyl)pyrimidine]
ZR Ratio 48 hr [1]: 12.4 | T47 Ratio 48 hr [2]: 16.8

EC50 [1]: 2030 nM | EC50 [2]: > 5000 nM
SMILES: CCc1cccc(Nc2cc(C(F)(F)F)nc(-c3ccccn3)n2)c1 [Example 93, 4-(3-Ethylanilino)-2-(2-pyridinyl)-6-(trifluoromethyl)pyrimidine]
ZR Ratio 48 hr [1]: 8.2 | T47 Ratio 48 hr [2]: 2.0

EC50 [1]: 148 nM | EC50 [2]: 113 nM
SMILES: COc1ccc(Cl)c(Nc2cc(C(F)(F)F)nc(-c3ccccn3)n2)c1 [Example 95, 4-(2-Chloro-5-methoxyanilino)-2-(2-pyridinyl)-6-(trifluoromethyl)pyrimidine]
ZR Ratio 48 hr [1]: 8.6 | T47 Ratio 48 hr [2]: 11.6

EC50 [1]: 2760 nM | EC50 [2]: > 5000 nM
SMILES: CSc1cccc(Nc2cc(C(F)(F)F)nc(-c3ccccn3)n2)c1 [Example 96, 4-(3-Methylmercaptoanilino)-2-(2-pyridinyl)-6-(trifluoromethyl)pyrimidine]
ZR Ratio 48 hr [1]: 4.9 | T47 Ratio 48 hr [2]: 1.4

EC50 [1]: 717 nM | EC50 [2]: 659 nM
SMILES: Cl.Oc1cccc(Nc2cc(C(F)(F)F)nc(-c3cccnc3)n2)c1 [Example 97, 4-(3-Hydroxyanilino)-2-(3-pyridinyl)-6-(trifluoromethyl)pyrimidine hydrochloride]
ZR Ratio 48 hr [1]: 6.7 | T47 Ratio 48 hr [2]: 14.5

EC50 [1]: 701 nM | EC50 [2]: 512 nM
SMILES: CCOc1ccc(OCC)c(Nc2cc(C(F)(F)F)nc(-c3cccnc3)n2)c1 [Example 102, 4-(2,5-Diethoxyanilino)-2-(3-pyridinyl)-6-(trifluoromethyl)pyrimidine]
ZR Ratio 48 hr [1]: 7.4 | T47 Ratio 48 hr [2]: 8.0

EC50 [1]: 982 nM | EC50 [2]: 183 nM
SMILES: Oc1ccc(Cl)c(Nc2cc(C(F)(F)F)nc(-c3cccnc3)n2)c1 [Example 106, 4-(2-Chloro-5-hydroxyanilino)-2-(3-pyridinyl)-6-(trifluoromethyl)pyrimidine]
ZR Ratio 48 hr [1]: 2.4 | T47 Ratio 48 hr [2]: 9.0

More lines, now with the values behind:

SMILES: O=S(=O)(c1ccccc1)c1cccc(Nc2cc(C(F)(F)F)nc(-c3cccnc3)n2)c1 [Example 65, 4-[3-(Phenylsulfone)anilino]-2-(3-pyridinyl)-6-(trifluoromethyl)pyrimidine]
EC50 [1]: > 5000 nM | ZR Ratio 48 hr [1]: 1.7 | EC50 [2]: > 5000 nM | T47 Ratio 48 hr [2]: 1.7

SMILES: O=C(Nc1ccccc1)c1cccc(Nc2cc(C(F)(F)F)nc(-c3cccnc3)n2)c1 [Example 66, 4-[3-(N-phenylamide)anilino]-2-(3-pyridinyl)-6-(trifluoromethyl)pyrimidine]
EC50 [1]: > 5000 nM | ZR Ratio 48 hr [1]: 0.9 | EC50 [2]: > 5000 nM | T47 Ratio 48 hr [2]: 1.2

SMILES: Cl.Oc1cccc(Nc2cc(C(F)(F)F)nc(-c3ccccn3)n2)c1 [Example 69, 4-(3-Hydroxyanilino)-2-(2-pyridinyl)-6-(trifluoromethyl)pyrimidine hydrochloride]
EC50 [1]: 127 nM | ZR Ratio 48 hr [1]: 10.9 | EC50 [2]: 382 nM | T47 Ratio 48 hr [2]: 14.2

SMILES: COc1cccc(Nc2cc(C(F)(F)F)nc(-c3ccccc3)n2)c1 [Example 73, 4-(3-Methoxyanilino)-2-phenyl-6-(trifluoromethyl)pyrimidine]
EC50 [1]: 10000 nM | ZR Ratio 48 hr [1]: 2.6 | EC50 [2]: > 5000 nM | T47 Ratio 48 hr [2]: 1.6

SMILES: COc1cccc(Nc2cc(C(F)(F)F)nc(-c3cnccn3)n2)c1 [Example 74, 4-(3-Methoxyanilino)-2-(2-pyrazinyl)-6-(trifluoromethyl)pyrimidine]
EC50 [1]: 326 nM | ZR Ratio 48 hr [1]: 13.1 | EC50 [2]: 364 nM | T47 Ratio 48 hr [2]: 16.4

SMILES: COc1ccc(C)c(Nc2cc(C(F)(F)F)nc(-c3cnccn3)n2)c1 [Example 80, 4-(5-Methoxy-2-methylanilino)-2-(2-pyrazinyl)-6-(trifluoromethyl)pyrimidine]
EC50 [1]: 243 nM | ZR Ratio 48 hr [1]: 5.9 | EC50 [2]: 64 nM | T47 Ratio 48 hr [2]: 8.5

SMILES: COc1ccc(Oc2ccccc2)cc1Nc1cc(C(F)(F)F)nc(-c2cccnc2)n1 [Example 85, 4-(2-Methoxy-5-phenoxyanilino)-2-(3-pyridinyl)-6-(trifluoromethyl)pyrimidine]
EC50 [1]: 2830 nM | ZR Ratio 48 hr [1]: 6.7 | EC50 [2]: > 5000 nM | T47 Ratio 48 hr [2]: 1.7

SMILES: COc1ccc(C)cc1Nc1cc(C(F)(F)F)nc(-c2cccnc2)n1 [Example 87, 4-(2-Methoxy-5-methylanilino)-2-(3-pyridinyl)-6-(trifluoromethyl)pyrimidine]
EC50 [1]: < 75 nM | ZR Ratio 48 hr [1]: 16.9 | EC50 [2]: < 75 nM | T47 Ratio 48 hr [2]: 19.2

SMILES: COc1ccc(C(F)(F)F)cc1Nc1cc(C(F)(F)F)nc(-c2cccnc2)n1 [Example 89, 4-(2-Methoxy-5-trifluoromethylanilino)-2-(3-pyridinyl)-6-(trifluoromethyl)pyrimidine]
EC50 [1]: 1600 nM | ZR Ratio 48 hr [1]: 9.8 | EC50 [2]: 2740 nM | T47 Ratio 48 hr [2]: 8.7

SMILES: COc1cccc(CNc2cc(C(F)(F)F)nc(-c3cccnc3)n2)c1 [Example 104, 4-(3-Methoxybenzylamino)-2-(3-pyridinyl)-6-(trifluoromethyl)pyrimidine]
EC50 [1]: > 5000 nM | ZR Ratio 48 hr [1]: 1.7 | EC50 [2]: > 5000 nM | T47 Ratio 48 hr [2]: 1.1

SMILES: Oc1ccc(Cl)c(Nc2cc(C(F)(F)F)nc(-c3ccncc3)n2)c1 [Example 107, 4-(2-Chloro-5-hydroxyanilino)-2-(4-pyridinyl)-6-(trifluoromethyl)pyrimidine]
EC50 [1]: 123 nM | ZR Ratio 48 hr [1]: 5.3 | EC50 [2]: 63 nM | T47 Ratio 48 hr [2]: 8.0
